Results published in paper PMC10804683, “Identification of the pyridoxal 5′‐phosphate allosteric site in human pyridox(am)ine 5′‐phosphate oxidase” (Protein Science : A Publication of the Protein Society, 2024).
Changes are numbered by the printed parent chain. Entries after “also recorded” stand apart in the source; their conditions may differ.

Assays:
[1] = biological target: T1, apo-PNPO F48A/E50L/R161C/R258L (Homo sapiens, UniProt Q9NVS9, E50L/F48A/R161C/R258L); test: PLP binding by intrinsic fluorescence, apo F48A/E50L/R161C/R258L; conditions: excitation 280 nm, 100 nM enzyme
T1 construct: together with a main form corresponding to the entire protein (estimated molecular mass of 31.0 ± 0.7 kDa); made in house; host or cells: E. coli BL21(DE3)
T1 sequence (Q9NVS9 1-261 F48A/E50L/R161C/R258L): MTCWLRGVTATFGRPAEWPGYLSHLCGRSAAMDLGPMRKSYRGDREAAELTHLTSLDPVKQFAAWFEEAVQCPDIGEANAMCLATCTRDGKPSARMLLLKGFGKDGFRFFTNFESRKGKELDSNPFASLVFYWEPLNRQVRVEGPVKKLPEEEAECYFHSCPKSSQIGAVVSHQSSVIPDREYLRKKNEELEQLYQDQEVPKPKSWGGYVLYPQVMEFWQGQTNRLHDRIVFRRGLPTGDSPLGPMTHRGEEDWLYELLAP
Description: (§1) PLP binding to PNPO can be detected and quantitatively measured using differential scanning fluorimetry (DSF) and also by measuring FMN fluorescence changes. We had previously attributed DSF changes to PLP binding at the active site, while FMN fluorescence changes were attributed to PLP binding at the allosteric site (Barile et al., [2019], [2020]). Previous experiments carried out with the PNPO R161C variant, affecting a residue that is essential for substrate binding and catalysis (and therefore also for PLP binding at the active site), confirms that DSF measurements only report PLP binding at the active site (Barile et al., [2021]; Table 1). […] We expected to observe no FMN fluorescence changes upon titration of the variants with PLP. However, this was not the case, and the dissociation constant values obtained by observing the FMN fluorescence emission were only up to threefold larger in the variants with respect to wild type PNPO (Figure 3). […] To check the second possibility, we measured intrinsic fluorescence changes of wild type and variant apo‐forms (i.e., without FMN) upon PLP titration. […]
(§2) Analyses of PLP binding, based on FMN fluorescence increase observed upon binding of PLP to PNPO, were performed as described in Barile et al. ([2020]). […] Emission spectra were recorded from […], with excitation and emission slits set at 3 and 5 nm, respectively. […]

[2] = biological target: T2, apo-PNPO F48A/E50L/H248N/R258L (Homo sapiens, UniProt Q9NVS9, E50L/F48A/H248N/R258L); test: PLP binding by intrinsic fluorescence, apo quadruple variant; conditions: excitation 280 nm, 100 nM enzyme
T2 construct: a main form corresponding to the entire protein; made in house; host or cells: E. coli BL21(DE3)
T2 sequence (Q9NVS9 1-261 F48A/E50L/H248N/R258L): T1 sequence (Q9NVS9 1-261 F48A/E50L/R161C/R258L) with C161R, H248N
Description: as §1, §2

[3] = biological target: T3, human PNPO F48A/E50L/R161C/R258L variant (Homo sapiens, UniProt Q9NVS9, E50L/F48A/R161C/R258L); test: PLP binding by DSF, F48A/E50L/R161C/R258L
T3 construct: a main form corresponding to the entire protein; made in house; host or cells: E. coli BL21(DE3)
T3 sequence (Q9NVS9 1-261 F48A/E50L/R161C/R258L): T1 sequence (Q9NVS9 1-261 F48A/E50L/R161C/R258L)
Description: PLP binding to PNPO can be detected and quantitatively measured using differential scanning fluorimetry (DSF) and also by measuring FMN fluorescence changes. We had previously attributed DSF changes to PLP binding at the active site, while FMN fluorescence changes were attributed to PLP binding at the allosteric site (Barile et al., [2019], [2020]). Previous experiments carried out with the PNPO R161C variant, affecting a residue that is essential for substrate binding and catalysis (and therefore also for PLP binding at the active site), confirms that DSF measurements only report PLP binding at the active site (Barile et al., [2021]; Table 1). The dissociation constant values obtained with DSF are almost the same for the three variants and doubled with respect to the wild type enzyme (Figure 2, Table 1). This behavior reflects the decrease of affinity of these variants for the substrates compared to the wild type PNPO. We expected to observe no FMN fluorescence changes upon titration of the variants with PLP. However, this was not the case, and the dissociation constant values obtained by observing the FMN fluorescence emission were only up to threefold larger in the variants with respect to wild type PNPO (Figure 3). […] To check the second possibility, we measured intrinsic fluorescence changes of wild type and variant apo‐forms (i.e., without FMN) upon PLP titration. […]

[4] = biological target: human PNPO R161C variant (holo-enzyme); parameters: method as in Barile et al. ([2021]); conditions: FMN fluorescence changes, ref Barile et al. ([2021]), read-out: PLP binding KD^FLUO; cited from earlier work

PLP binding KD^DSF [3]: No binding
SMILES: Cc1ncc(COP(=O)(O)O)c(C=O)c1O [PLP, pyridoxal 5′‐phosphate]
Apo-enzyme PLP binding KD^FLUO [1]: no variation in the emitted fluorescence was observed; also recorded: No binding | Apo-enzyme PLP binding KD^FLUO [2]: no change in fluorescence was observed; also recorded: No binding | Kd [4]: 530 ± 80 nM
